Test results reported in ChEMBL document CHEMBL1914376, “Synthesis and in vitro evaluation of 7-methoxy-N-(pent-4-enyl)-1,2,3,4-tetrahydroacridin-9-amine-new tacrine derivate with cholinergic properties” (Bioorg Med Chem Lett, 2011).

Columns and labels:
[1] = molecular target: T1, Acetylcholinesterase (Homo sapiens, UniProt P22303)
Description: Inhibition of human recombinant AChE after 5 mins using spectrophotometer by Ellman's method

[2] = molecular target: Cholinesterase (Homo sapiens, UniProt P06276)
Description: Inhibition of human plasmatic BChE after 5 mins using spectrophotometer by Ellman's method

[3] = molecular target: T1, Acetylcholinesterase; test: Ratio of 7-MEOTA IC50 to compound IC50 for human recombinant AChE
[4] = molecular target: T1, Acetylcholinesterase; test: Ratio of Tacrine IC50 to compound IC50 for human recombinant AChE

T1 sequence (P22303 whole entry): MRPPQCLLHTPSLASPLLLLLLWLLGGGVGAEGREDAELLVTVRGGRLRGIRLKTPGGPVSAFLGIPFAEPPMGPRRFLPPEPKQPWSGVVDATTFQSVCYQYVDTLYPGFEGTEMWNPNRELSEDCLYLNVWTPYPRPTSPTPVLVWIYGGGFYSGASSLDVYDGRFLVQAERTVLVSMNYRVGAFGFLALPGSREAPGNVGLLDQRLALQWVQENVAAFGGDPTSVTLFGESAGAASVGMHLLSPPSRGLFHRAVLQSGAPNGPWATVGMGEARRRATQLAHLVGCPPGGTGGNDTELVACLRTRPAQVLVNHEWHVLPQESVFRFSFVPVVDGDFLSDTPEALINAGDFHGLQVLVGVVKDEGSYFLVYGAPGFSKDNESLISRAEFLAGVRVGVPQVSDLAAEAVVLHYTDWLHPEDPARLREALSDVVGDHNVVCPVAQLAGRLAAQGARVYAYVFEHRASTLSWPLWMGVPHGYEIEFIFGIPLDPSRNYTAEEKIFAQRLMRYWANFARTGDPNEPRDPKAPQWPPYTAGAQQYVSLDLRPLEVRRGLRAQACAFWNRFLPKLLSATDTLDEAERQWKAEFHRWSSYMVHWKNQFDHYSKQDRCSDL
Chain of Cholinesterase (P06276 whole entry): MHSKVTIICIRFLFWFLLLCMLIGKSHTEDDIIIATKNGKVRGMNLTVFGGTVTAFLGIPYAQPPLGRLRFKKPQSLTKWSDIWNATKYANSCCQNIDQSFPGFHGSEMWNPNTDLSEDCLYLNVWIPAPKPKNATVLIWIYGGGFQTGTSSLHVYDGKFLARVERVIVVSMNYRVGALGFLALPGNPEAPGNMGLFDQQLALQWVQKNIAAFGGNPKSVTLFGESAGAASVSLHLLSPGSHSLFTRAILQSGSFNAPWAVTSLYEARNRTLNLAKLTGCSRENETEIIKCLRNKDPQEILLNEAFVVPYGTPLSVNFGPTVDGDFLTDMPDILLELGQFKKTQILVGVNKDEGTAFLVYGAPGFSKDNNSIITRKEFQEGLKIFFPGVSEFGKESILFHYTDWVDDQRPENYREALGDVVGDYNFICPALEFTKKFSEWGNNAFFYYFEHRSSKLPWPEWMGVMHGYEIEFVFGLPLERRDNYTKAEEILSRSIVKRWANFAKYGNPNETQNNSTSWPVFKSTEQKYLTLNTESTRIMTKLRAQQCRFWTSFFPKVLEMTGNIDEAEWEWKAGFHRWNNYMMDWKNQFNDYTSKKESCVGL

`COc1ccc2nc3c(c(N4CCCCCN(c5c6c(nc7ccc(OC)cc57)CCCC6)CCCCC4)c2c1)CCCC3` gave an IC50 [1] of 4.6 µM and an IC50 [2] of 656 µM.
`C=CCCCNc1c2c(nc3ccc(OC)cc13)CCCC2` showed a Ratio IC50 [3] of 5, a Ratio IC50 [4] of 10 and an IC50 [1] of 2.2 µM. For the same compound, the IC50 [2] was 1.1 µM.
